According to ChEMBL document CHEMBL4138151, “Discovery of a head-to-tail cyclic peptide as the Keap1-Nrf2 protein-protein interaction inhibitor with high cell potency” (Eur J Med Chem, 2018):
Active and inactive are the calls of the source. The rule behind the calls is not given here.

Key:
[1] = molecular target: T1, Kelch-like ECH-associated protein 1/Nuclear factor erythroid 2-related factor 2 (Mus musculus) (UniProt Q60795+Q9Z2X8); test: Inhibition of Keap1/Nrf2 protein-protein interaction in mouse RAW264.7 cells assessed as increase in GCLM levels up to 10 uM after 8 hrs by Western blot analysis; format: cell-based
[2] = molecular target: T1, Kelch-like ECH-associated protein 1/Nuclear factor erythroid 2-related factor 2 (Mus musculus); test: Inhibition of Keap1/Nrf2 protein-protein interaction in mouse RAW264.7 cells assessed as increase in NQO1 levels up to 10 uM after 8 hrs by Western blot analysis; format: cell-based
[3] = molecular target: T1, Kelch-like ECH-associated protein 1/Nuclear factor erythroid 2-related factor 2 (Mus musculus); test: Inhibition of Keap1/Nrf2 protein-protein interaction in mouse RAW264.7 cells assessed as increase in HO-1 levels up to 10 uM after 8 hrs by Western blot analysis; format: cell-based
[4] = molecular target: T1, Kelch-like ECH-associated protein 1/Nuclear factor erythroid 2-related factor 2 (Mus musculus); test: Inhibition of Keap1/Nrf2 protein-protein interaction in mouse RAW264.7 cells assessed as upregulation of NQO1 mRNA expression at 0.1 to 10 uM after 10 hrs by quantitative real-time-PCR analysis; format: cell-based
[5] = molecular target: T1, Kelch-like ECH-associated protein 1/Nuclear factor erythroid 2-related factor 2 (Mus musculus); test: Inhibition of Keap1/Nrf2 protein-protein interaction in mouse RAW264.7 cells assessed as upregulation of HO-1 mRNA expression at 0.1 to 10 uM after 10 hrs by quantitative real-time-PCR analysis; format: cell-based
[6] = molecular target: T1, Kelch-like ECH-associated protein 1/Nuclear factor erythroid 2-related factor 2 (Mus musculus); test: Inhibition of Keap1/Nrf2 protein-protein interaction in mouse RAW264.7 cells assessed as upregulation of GCLM mRNA expression at 0.1 to 10 uM after 10 hrs by quantitative real-time-PCR analysis; format: cell-based
[7] = system: RAW264.7; test: Inhibition of LPS-induced increase in ROS levels in mouse RAW264.7 cells up to 10 uM preincubated for 10 hrs followed by LPS stimulation for 12 hrs by cH2DCF-DA dye-based fluorescent microscopy; format: functional, cell-based
[8] = molecular target: T1, Kelch-like ECH-associated protein 1/Nuclear factor erythroid 2-related factor 2 (Mus musculus); test: Inhibition of Keap1/Nrf2 protein-protein interaction in mouse RAW264.7 cells assessed as upregulation of HO1 mRNA expression at 1 uM after 10 hrs by quantitative real-time-PCR analysis; format: cell-based
[9] = system: RAW264.7; test: Anti-inflammatory activity in mouse RAW264.7 cells assessed as restoration of LPS-induced decrease in SOD activity at 10 uM; format: functional, cell-based
[10] = molecular target: T1, Kelch-like ECH-associated protein 1/Nuclear factor erythroid 2-related factor 2 (Mus musculus); test: Inhibition of Keap1/Nrf2 protein-protein interaction in mouse RAW264.7 cells assessed as upregulation of NQO1 mRNA expression at 1 uM after 10 hrs by quantitative real-time-PCR analysis; format: cell-based
[11] = system: RAW264.7; conditions: Mus musculus, up to 10 µM
Description: Anti-inflammatory activity in mouse RAW264.7 cells assessed as inhibition of LPS-induced IL-18 production up to 10 uM pretreated for 10 hrs followed by LPS stimulation for 12 hrs by ELISA

[12] = system: RAW264.7; test: Anti-inflammatory activity in mouse RAW264.7 cells assessed restoration of LPS-induced decrease in GSH-Px activity at 10 uM; format: functional, cell-based
[13] = system: RAW264.7; test: Anti-inflammatory activity in mouse RAW264.7 cells assessed inhibition of LPS-induced increase in MPO activity at 10 uM; format: functional, cell-based
[14] = system: RAW264.7; test: Upregulation of GSH-Px protein expression in mouse RAW264.7 cells at 1 uM after 8 hrs by Western blot analysis; format: functional, cell-based
[15] = system: RAW264.7; test: Upregulation of SOD protein expression in mouse RAW264.7 cells at 1 uM after 8 hrs by Western blot analysis; format: functional, cell-based
[16] = molecular target: T1, Kelch-like ECH-associated protein 1/Nuclear factor erythroid 2-related factor 2 (Mus musculus); test: Inhibition of Keap1/Nrf2 protein-protein interaction in mouse RAW264.7 cells assessed as upregulation of GCLM mRNA expression at 1 uM after 10 hrs by quantitative real-time-PCR analysis; format: cell-based
[17] = system: RAW264.7; test: Anti-inflammatory activity in mouse RAW264.7 cells assessed as inhibition of LPS-induced TNFalpha production up to 10 uM pretreated for 10 hrs followed by LPS stimulation for 12 hrs by ELISA; format: functional, cell-based
[18] = system: RAW264.7; test: Anti-inflammatory activity in mouse RAW264.7 cells assessed as reduction in LPS-induced NO production by measuring NO level at 10 uM preincubated for 10 hrs followed by LPS stimulation for 12 hrs by Griess assay (reference value: 50 uM); format: functional
[19] = system: RAW264.7; test: Anti-inflammatory activity in mouse RAW264.7 cells assessed as inhibition of LPS-induced IL-1beta production up to 10 uM pretreated for 10 hrs followed by LPS stimulation for 12 hrs by ELISA; format: functional, cell-based

T1 sequence (Q60795 whole entry, looked up): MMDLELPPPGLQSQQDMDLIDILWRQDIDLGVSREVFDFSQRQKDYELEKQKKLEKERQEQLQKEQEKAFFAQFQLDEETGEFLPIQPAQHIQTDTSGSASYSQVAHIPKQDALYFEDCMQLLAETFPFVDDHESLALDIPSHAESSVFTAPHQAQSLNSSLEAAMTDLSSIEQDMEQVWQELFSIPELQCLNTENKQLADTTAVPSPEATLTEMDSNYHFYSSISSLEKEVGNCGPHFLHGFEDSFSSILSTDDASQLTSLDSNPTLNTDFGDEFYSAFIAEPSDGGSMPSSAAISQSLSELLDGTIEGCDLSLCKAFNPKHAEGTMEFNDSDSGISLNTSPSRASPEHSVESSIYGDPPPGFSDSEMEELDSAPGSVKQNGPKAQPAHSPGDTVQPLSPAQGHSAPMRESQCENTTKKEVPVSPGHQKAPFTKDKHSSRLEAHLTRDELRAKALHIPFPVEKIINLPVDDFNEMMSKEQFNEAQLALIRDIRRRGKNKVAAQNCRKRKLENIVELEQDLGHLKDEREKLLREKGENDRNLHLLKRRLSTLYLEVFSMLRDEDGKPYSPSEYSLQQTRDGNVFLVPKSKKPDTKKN
T1 sequence (Q9Z2X8 whole entry, looked up): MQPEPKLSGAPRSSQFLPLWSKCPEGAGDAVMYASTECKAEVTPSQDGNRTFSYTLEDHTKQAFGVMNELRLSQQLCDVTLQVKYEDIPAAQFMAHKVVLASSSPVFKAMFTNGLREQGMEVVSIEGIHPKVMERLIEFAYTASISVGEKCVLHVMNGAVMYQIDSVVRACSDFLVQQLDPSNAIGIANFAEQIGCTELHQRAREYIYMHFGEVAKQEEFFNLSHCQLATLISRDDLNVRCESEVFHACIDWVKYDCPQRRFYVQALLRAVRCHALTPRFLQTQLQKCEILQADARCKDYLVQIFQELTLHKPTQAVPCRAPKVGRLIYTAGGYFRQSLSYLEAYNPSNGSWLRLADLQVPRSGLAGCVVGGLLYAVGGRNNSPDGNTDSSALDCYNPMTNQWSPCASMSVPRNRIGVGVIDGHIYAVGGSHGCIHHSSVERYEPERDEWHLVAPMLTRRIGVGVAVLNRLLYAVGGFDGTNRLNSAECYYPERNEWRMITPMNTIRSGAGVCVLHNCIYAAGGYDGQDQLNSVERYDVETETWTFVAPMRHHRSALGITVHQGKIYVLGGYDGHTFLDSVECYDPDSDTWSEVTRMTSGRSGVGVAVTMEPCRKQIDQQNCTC

CC(=O)NCC(=O)N[C@@H](CCC(N)=O)C(=O)N[C@@H](CC(C)C)C(=O)N[C@@H](CC(=O)O)C(=O)N1CCC[C@H]1C(=O)N[C@@H](CCC(=O)O)C(=O)N[C@H](C(=O)NCC(=O)N[C@@H](CCC(=O)O)C(=O)N[C@@H](Cc1ccccc1)C(=O)N[C@@H](CC(C)C)C(=O)O)[C@@H](C)O
inhibition [1]: inactive | inhibition [2]: inactive | inhibition [3]: inactive | inhibition [4]: inactive | inhibition [5]: inactive | inhibition [6]: inactive

CC(C)C[C@@H]1NC(=O)[C@H](Cc2ccccc2)NC(=O)[C@H](CCC(=O)O)NC(=O)CNC(=O)[C@H]([C@@H](C)O)NC(=O)[C@H](CCC(=O)O)NC(=O)[C@@H]2CCCN2C(=O)[C@H](CC(=O)O)NC(=O)[C@H](CC(C)C)NC(=O)[C@H](CCC(N)=O)NC(=O)CNC1=O
inhibition [1]: Active | inhibition [7]: Active | inhibition [8]: Active | Activity [9]: Active | inhibition [10]: Active | inhibition [11]: Active | Activity [12]: Active | inhibition [2]: Active | inhibition [13]: Active | Activity [14]: Active | Activity [15]: Active | inhibition [3]: Active | inhibition [16]: Active | inhibition [17]: Active | Activity [18]: 14 µM | inhibition [19]: Active
